Assay results from patent publication US8592174B2, “Peptidase substrates” (bioMérieux, S.A., priority 2009, dated 2013).

Key:
Type in all cases: cell-based
[1] = test system: Listeria monocytogenes 8812049; experiment: Peptidase detection on Columbia medium (Example 5); conditions: 75 mg/l, 48 h 37° C. For Coloration strength: key: +++: good growth/high coloration strength; ++: medium growth/medium coloration strength; +: weak growth/weak coloration strength; −: no growth/no coloration. For Growth: key: +++: good growth/high coloration strength; ++: medium growth/medium coloration strength; +: weak growth/weak coloration strength; −: no growth/no coloration.
Description: After homogenization, the media were distributed into Petri dishes 55 mm in diameter. A medium acting as a growth control (Columbia) and denoted C was also poured.
Twenty-two strains of microorganisms were inoculated with a 10 μl calibrated loop according to the three-quadrant streaking method using bacterial suspensions at 0.5 McFarland.

[2] = test system: Shigella flexneri 92 11 059; experiment: pH variation detection on modified chromID Coli medium (Example 6); set-up: Coloration strength: key: +++: good growth/high coloration strength; ++: medium growth/medium coloration strength; +: weak growth/weak coloration strength; −: no growth/no coloration; conditions: 50 mg/l, 24 h 37° C. For Growth: key: +++: good growth/high coloration strength; ++: medium growth/medium coloration strength; +: weak growth/weak coloration strength; −: no growth/no coloration.
Description: (§1) The media were incubated for 24 hours at 37° C., then the spots formed were examined visually.

[3] = test system: Yersinia enterocolitica ssp enterocolitica 92 11 061; experiment: as above; set-up: Coloration strength: key to the marks not given beside the values; conditions: 50 mg/l, 24 h 37° C.
Description: as §1

[4] = test system: Enterobacter amnigenus 05 06 046; experiment: as above; set-up: Coloration strength: key to the marks not given beside the values; conditions: 50 mg/l, 24 h 37° C.
Description: as §1

[5] = test system: Salmonella ser. Enteritidis 94 06 001; experiment: as above; set-up: Coloration strength: key to the marks not given beside the values; conditions: 50 mg/l, 24 h 37° C.
Description: as §1

[6] = test system: Citrobacter koseri 75 08 021; experiment: as above; set-up: Coloration strength: key to the marks not given beside the values; conditions: 50 mg/l, 24 h 37° C.
Description: as §1

[7] = test system: Shigella sonnei 92 11 060; experiment: as above; set-up: Coloration strength: key to the marks not given beside the values; conditions: 50 mg/l, 24 h 37° C. For Coloration strength: key: +++: good growth/high coloration strength; ++: medium growth/medium coloration strength; +: weak growth/weak coloration strength; −: no growth/no coloration.
Description: as §1

[8] = test system: Providencia stuartii 92 12 101; experiment: as above; set-up: Coloration strength: key to the marks not given beside the values; conditions: 50 mg/l, 24 h 37° C.
Description: as §1

E. coli 78 12 004 = experiment: as above; set-up: Coloration strength: key to the marks not given beside the values; conditions: 50 mg/l, 24 h 37° C.
Description: as §1

Hafnia alvei 05 04 201 = experiment: as above; set-up: Coloration strength: key to the marks not given beside the values; conditions: 50 mg/l, 24 h 37° C.
Description: as §1

[9] = test system: Escherichia hermannii 04 03 161; experiment: as above; set-up: Coloration strength: key to the marks not given beside the values; conditions: 50 mg/l, 24 h 37° C.
Description: as §1

[10] = test system: Enterobacter intermedius 05 04 110; experiment: as above; set-up: Coloration strength: key to the marks not given beside the values; conditions: 50 mg/l, 24 h 37° C.
Description: as §1

[11] = test system: Enterobacter cloacae 05 09 064; experiment: as above; set-up: Coloration strength: key to the marks not given beside the values; conditions: 50 mg/l, 24 h 37° C.
Description: as §1

[12] = test system: Leclercia adecarboxylata 97 04 041; experiment: as above; set-up: Coloration strength: key to the marks not given beside the values; conditions: 50 mg/l, 24 h 37° C.
Description: as §1

[13] = test system: Pantoea agglomerans 04 05 057; experiment: as above; set-up: Coloration strength: key to the marks not given beside the values; conditions: 50 mg/l, 24 h 37° C.
Description: as §1

[14] = test system: Yersinia enterocolitica 05 04 143; experiment: as above; set-up: Coloration strength: key to the marks not given beside the values; conditions: 50 mg/l, 24 h 37° C.
Description: as §1

[15] = test system: Morganella morganii ssp morganii 97 08 046; experiment: as above; set-up: Coloration strength: key to the marks not given beside the values; conditions: 50 mg/l, 24 h 37° C.
Description: as §1

[16] = test system: Edwarsiella tarda 75 07 053; experiment: as above; set-up: Coloration strength: key to the marks not given beside the values; conditions: 50 mg/l, 24 h 37° C.
Description: as §1

[17] = test system: Proteus vulgaris 04 05 062; experiment: as above; set-up: Coloration strength: key to the marks not given beside the values; conditions: 50 mg/l, 24 h 37° C.
Description: as §1

[18] = test system: Raoultella ornithinolytica 05 04 140; experiment: as above; set-up: Coloration strength: key to the marks not given beside the values; conditions: 50 mg/l, 24 h 37° C.
Description: as §1

[19] = test system: Providencia rettgeri 88 05 064; experiment: as above; set-up: Coloration strength: key to the marks not given beside the values; conditions: 50 mg/l, 24 h 37° C.
Description: as §1

[20] = test system: Buttiauxella agrestis 05 04 166; experiment: as above; set-up: Coloration strength: key to the marks not given beside the values; conditions: 50 mg/l, 24 h 37° C.
Description: as §1

E. coli 05 04 163 = experiment: as above; set-up: Coloration strength: key to the marks not given beside the values; conditions: 50 mg/l, 24 h 37° C.
Description: as §1

E. coli 05 06 043 = experiment: as above; set-up: Coloration strength: key to the marks not given beside the values; conditions: 50 mg/l, 24 h 37° C.
Description: as §1

Shigella spp 76 02 055 = experiment: as above; set-up: Coloration strength: key to the marks not given beside the values; conditions: 50 mg/l, 24 h 37° C.
Description: as §1

[21] = test system: Cedecea lapagei 05 04 130; experiment: as above; set-up: Coloration strength: key to the marks not given beside the values; conditions: 50 mg/l, 24 h 37° C.
Description: as §1

C[C@H](N)C(=O)Nc1ccc(C=Cc2cc[n+](C)c3ccccc23)cc1.Cl.[Cl-] [L-alanyl-4-(4′-amidostyryl)-N-methylquinolinium (dichloride)]
+: Growth ([1]; control C: +)
++: Coloration strength [1]
orange: Color [1]

Nc1ccc(C=Cc2ccnc3ccccc23)cc1
++: Coloration strength [2] | Growth ([2]; control C: ++) | Coloration strength [3] | Growth ([3]; control C: ++) | Coloration strength [4] | Growth ([4]; control C: ++) | Coloration strength [5] | Growth ([5]; control C: ++) | Coloration strength [6] | Growth ([6]; control C: ++) | Coloration strength [7] | Growth ([7]; control C: ++) | Coloration strength [8] | Growth ([8]; control C: ++) | Coloration strength (E. coli 78 12 004) | Growth (E. coli 78 12 004; control C: ++) | Coloration strength (Hafnia alvei 05 04 201) | Growth (Hafnia alvei 05 04 201; control C: ++) | Coloration strength [9] | Growth ([9]; control C: ++) | Coloration strength [10] | Coloration strength [11] | Growth ([11]; control C: ++) | Coloration strength [12] | Growth ([12]; control C: ++) | Coloration strength [13] | Growth ([13]; control C: ++) | Coloration strength [14] | Coloration strength [15] | Growth ([15]; control C: ++) | Coloration strength [16] | Growth ([16]; control C: ++) | Coloration strength [17] | Growth ([17]; control C: ++) | Coloration strength [18] | Growth ([18]; control C: ++) | Coloration strength [19] | Growth ([19]; control C: ++) | Coloration strength [20] | Growth ([20]; control C: ++) | Coloration strength (E. coli 05 04 163) | Growth (E. coli 05 04 163; control C: ++) | Coloration strength (E. coli 05 06 043) | Growth (E. coli 05 06 043; control C: ++) | Coloration strength (Shigella spp 76 02 055) | Growth (Shigella spp 76 02 055; control C: ++) | Coloration strength [21] | Growth ([21]; control C: ++)
+: Growth ([10]; control C: ++) | Growth ([14]; control C: ++)
Orange: Color [2] | Color [3] | Color [4] | Color [5] | Color [6] | Color [7] | Color [8] | Color (E. coli 78 12 004) | Color (Hafnia alvei 05 04 201) | Color [9] | Color [10] | Color [11] | Color [12] | Color [13] | Color [14] | Color [15] | Color [16] | Color [17] | Color [18] | Color [19] | Color [20] | Color (E. coli 05 04 163) | Color (E. coli 05 06 043) | Color (Shigella spp 76 02 055) | Color [21]
